# “Also recorded” adds a separate entry of the source.
# Experiments:
# [1] = system: WM983-B melanoma cells; experiment: Cell morphology (phase-contrast); format: cell-based, human; details: increasing doses, serum-free medium; time- and dose-dependent
# Description: (§1) To assess the possible impact of anle138b as well as anle138c on the different melanoma cell lines, WM983-A, WM983-B and SK-MEL-5, we treated them with increasing doses of either compound, dissolved in dimethyl sulfoxide (DMSO), and added to serum-free culture medium. […] We also observed that treatment with anle138b caused a more rapid morphological change than anle138c. To determine whether the effect of the two anle compounds was related to the amount of α-synuclein produced by the cells, we compared the proliferation of the (VGP) WM983-A high-level and the (RGP/VGP) WM1158 low-level α-synuclein-producing melanoma cells over a period of 96 hr, with replenishment of each anle compound at 48 hr (FIGS. 8A and B).
# (§2) 10 or 30 mM stock solutions of anle138b or anle138c were made in DMSO. Since anle138b as well as anle138c bind strongly to FBS, melanoma cells, plated for 24 hr in tissue-culture medium containing 10% FBS, were rinsed three times with serum-free medium prior to addition of anle138b, anle138c, or an equivalent volume of DMSO only in serum-free medium. Forty-eight hours later, the cell culture medium was removed, followed by addition of an equivalent dose of anle138b or anle138c, or DMSO only in serum-free culture medium. […] Proliferation of melanoma cells that had received DMSO only, or were treated with anle138b was determined by counting the cells with a hemocytometer.
# (§3) Cell morphology. Phase-contrast or DIC images of the melanoma cells that had been treated for various times with anle138b or anle138c, or had received DMSO only were captured with a 10×NA 0.6 objective on a Zeiss Axiovert 100 microscope with a Hamamatsu Orca charge-coupled device (CCD) camera. At least four images, at random areas per culture dish, were recorded for each time point.
# [2] = system: SK-MEL-5 melanoma cells; experiment: Cell morphology (phase-contrast); format: cell-based, human; details: increasing doses, serum-free medium; time- and dose-dependent
# Description: as §1, §2, §3
# [3] = system: WM1158 melanoma cells; experiment: Cell morphology (phase-contrast); format: cell-based, human; details: 10 μM, up to 96 hr, replenishment at 48 hr
# Description: as §1, §2, §3
# [4] = system: WM983-B melanoma cells; experiment: Melanoma cell proliferation analysis (hemocytometer counting); format: cell-based, human; details: single dose of 10 μM, 24 hr
# Description: To compare how rapidly anle138b affected the proliferation of melanoma cells, expressing α-synuclein at a high level, we treated the melanoma cell lines, WM983-A (VGP) and WM983-B (MGP), for 24, 48 or 72 hr with 10 μM of anle138b, with replenishment of the compound (10 μM) at 48 hr.
# as §2
# [5] = system: WM983-B melanoma cells; experiment: LDH cytotoxicity analysis; details: 2, 5, 10 or 15 μM for 96 hr, replenishment at 48 hr
# Description: Replicates of WM983-B as well as WM852 melanoma cells were plated at 3×10^5 cells per well in 35 mm tissue culture plates. Twenty-four hours later, the cells were rinsed three times with serum-free medium, followed by addition of increasing doses of anle138b or DMSO only. Forty-eight hours later, the cell culture medium was removed, followed by addition of equivalent doses of anle138b or DMSO only in serum-free medium. Culture medium, collected 48 hr later, was centrifuged to pellet and remove cellular debris. Using a PHERAstar FS microplate reader (BMG LABTECH GmbH, Ortenberg, Germany) and spectrophotometric absorbance measurement, the release of LDH enzyme activity into the tissue culture medium was determined with an LDH cytotoxicity assay kit (Roche Diagnostics Deutschland GmbH, Mannheim, Germany). […] Cells from the DMSO controls were trypsinized, counted, and lysed according to the manufacturer's instructions.
# [6] = system: WM983-B melanoma cells; experiment: Autophagy: LC3 immunofluorescence; format: cell-based, human
# Description: We observed a clear effect of the anle compounds on the autophagy pathway of the melanoma cells. […] Following addition of anle138c, the effect was seen later with levels of 8% at 24 hr and 78% after 96 hr.
# Autophagy. WM983-B and SK-MEL-5 cells that for 24 or 48 hr were treated with anle138 or had received DMSO only were fixed for 20 min with 3.7% PFA, permeabilized, blocked, and probed with an anti-LC3B [clone 2G6] antibody (nanoTools Antikörpertechnik GmbH & Co. KG, Teningen, Germany), followed by a donkey anti-mouse Alexa-488 secondary antibody and Draq5 DNA counterstain. Confocal image stacks were obtained with a 63×NA 1.2 objective on a Zeiss LSM 510 Meta confocal microscope.
# [7] = system: high-level α-synuclein expressing cell lines WM983-B; experiment: Initial screen of sixteen compounds from the DPP library; format: cell-based, human
# [8] = in vivo; cited from earlier work
# [9] = system: WM983-A, WM983-B, and SK-MEL-5 melanoma cell lines; experiment: Apoptosis markers in treated melanoma cells; format: cell-based, human
# Description: Although the morphological changes in the WM983-A, WM983-B, and SK-MEL-5 melanoma cell lines following addition of anle138b occurred quite rapidly, they were not indicative of the cells undergoing apoptosis. […] Differential interference contrast (DIC) images of the morphology of the anle138b-treated WM983-B, SK-MEL-5, and WM1158 melanoma cells from the same panels are shown in FIG. 9.
# [10] = system: WM1158 melanoma cells; experiment: Melanoma cell proliferation analysis; format: cell-based, human
# Description: as §1, §2
# [11] = Binding to FBS; format: in vitro ADME
# [12] = system: autophagy markers, LC3 and p62/SQSTM1; details: mouse, in vivo; cited from earlier work
smiles,measurement,setting,value
"Brc1cccc(-c2cc(-c3ccc4c(c3)OCO4)n[nH]2)c1 [anle138b, 5-(3-Bromophenyl)-3-(3,4-methylenedioxyphenyl)-1H-pyrazole]",morphological changes,[1],major morphological changes
same,morphological changes,[2],major morphological changes
same,morphology,[3],did not show a significantly altered morphology
same,proliferation,[4],inhibited the proliferation of both cell lines to a significant extent
same,cell killing (LDH release),[5],strong killing that reached a maximum at a 10 μM dose
same,cells with punctuate upregulation of LC3,"[6]; 24 hr, cells still attached",about 60%
same,cells with punctuate upregulation of LC3,"[6]; 48 hr, cells remaining on the dish",95%
same,effect on WM983-B cells in initial screen,[7],significantly affected; also recorded: strongest and most rapid effect
same,oral bioavailability and blood-brain-barrier penetration,[8],excellent
same,cleaved caspase 3 (apoptosis),[9],nor were they positive for cleaved caspase 3
same,proliferation,"[10]; over 96 hr, replenishment at 48 hr",reduced proliferation only after 48 hr
same,recovery of proliferation after removal of compound,"[10]; removal at 96 hr, fresh culture medium containing serum",able to recover proliferation normally
same,binding to FBS,[11],bind strongly
same,"level of the autophagy markers, LC3 and p62/SQSTM1",[12],did not change
